The assay concerns 186277-243-T-J2-PDC complex spheroid viability. The assay can be described thus: Anticancer human tumor 186277-243-T-J2-PDC patient-derived colon adenocarcinoma cell line growth inhibition. The note with it: for viability, T/C: stronger effect = lower value; for IC50: curve of compound. The text has this:
Multicellular complex tumor spheroid response to LSD1 Inhibitor Iadademstat in combination with a variety of drugs and investigational agents in selected tumor cell lines
The current study was undertaken to assess response to LSD1 inhibitors in combination with standard-of-care drugs and investigational agents in solid tumor complex spheroid models as well as in the K-562 leukemia. Complex spheroids include a stromal component modeled by human endothelial cells (HUVEC) and fibroblasts modeled by human mesenchymal stem cells (MSCs). The concentration ranges selected for each drug and investigational agent were based upon clinically achievable concentrations if the clinical Cmax of the agent was known.
Compounds. The drugs and investigational agents used in this study are listed on Table 1. All of the agents used, including staurosporine (NSC755774) and gemcitabine (NSC613327), were obtained from the Developmental Therapeutics Program, NCI. FDA-approved anticancer drugs are available from the NCI at http://dtp.nci.nih.gov/branches/dscb/oncology_drugset_explanation.html. Drugs and investigational agents were >95% pure by proton nuclear magnetic resonance (NMR) and liquid chromatography/mass spectrometry (LC/MS). Stock solutions were prepared at 400x in DMSO, stored at -70 degrees C, and diluted in fresh medium prior to their use. The final concentration of DMSO in cell culture wells never exceeded 0.25% (v/v). The FDA-approved anticancer drug set is available from the Developmental Therapeutics Program at https://dtp.cancer.gov/organization/dscb/obtaining/available_plates.htm. All drugs and investigational agents were tested over a range starting from a high concentration at or near the clinical Cmax and decreasing in half-log increments. If the clinical Cmax for an agent had not been determined, the highest concentration tested was 10 microM.
Cell Lines. The patient-derived cancer cell (PDC) lines: 292921-168-R-J2-PDC, K24384-001-R-PDC, and 521955-158-R2-J5-PDC pancreatic carcinomas, 556581-035-R-J1 ovarian carcinoma, 324938-238-R-J1-PDC, 855422-203-R-J1-PDC and 883617-216-R-J1-PDC urothelial bladder carcinomas, 743489-274-T-PDC renal cell carcinoma, 138582-R-J1 Merkel cell tumor, K60290-347-R-J1 and K57222-313-R-J1-PDC glioblastomas, 653999-131-R-J2-PDC, LG0703-F948-PDC, and 349418-098-R-PDC non-small cell lung carcinomas, 885512-296-R-J2-PDC, 171881-019-R-J1-PDC breast carcinomas and 186277-243-T-J2-PDC and 233499-124-R-J2-PDC colon carcinomas were obtained from the NCI Patient-Derived Models Repository (PDMR, https://pdmr.cancer.gov). The established cell lines NCI/ADR-RES (RRID:CVCL_14520 and OVCAR-5 (RRID:CVCL_1628) ovarian carcinomas, 786-O (RRID:CVCL_1051) and A498 (RRID:CVCL_A498) renal cell carcinoma, NCI-H211 (ATCC, cat. CRL-5824; RRID:CVCL_1529), NCI-H196 (ATCC, cat. CRL-5823, RRID:CVCL_1509), SW 1271 (ATCC, cat. CRL-2177, RRID:CVCL_1716) and NCI-H1876 (ATCC, cat. CRL-5902, RRID:CVCL_1503) small cell lung carcinomas, MDA-MB-231 (RRID:CVCL_0062) and MDA-MB-468 (RRID:CVCL_0419)breast carcinomas (10-12). Pooled donor human umbilical vein endothelial cells (HUVEC, Lonza, cat. CC-2519) and human mesenchymal stem cells (hMSC, Lonza, cat. PT-2501) were purchased from Lonza (Walkersville, MD).
Cell Culture. All cells were maintained in an incubator at 37 degrees C and 5% CO2 with 95% humidity. The PDC lines were cultured according to standard operating procedures established by the NCI PDMR (https://pdmr.cancer.gov). Briefly all PDCs were thawed and cultured in Matrigel-coated flasks prepared with a working solution of 1X Ham's F-12 nutrient mix, without supplementation (Invitrogen, Waltham, MA, cat. 11765054), 100 U/mL penicillin-streptomycin (Invitrogen, cat. 15140122), and 2.5% Matrigel (Corning Inc., Corning, NY, cat. 354248) for the first three passages. […]

Each structure is given as a SMILES string. “And” between values parts separate entries of the source, which are not always exact repeats. Identical values can stand only once. Bounds are passed on as bounds.
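Note: 7 day exposure to compounds.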

For the molecule `Cn1ncnc1C1c2n[nH]c(=O)c3cc(F)cc(c23)NC1c1ccc(F)cc1` (configuration not stated), the IC50 was more than 100 nM. In addition, where the note is “compound 0.000316 µM”, the viability, T/C is 101% and 106%. Besides, where the note is “compound 0.001 µM”, the viability, T/C is 98.5% and 98%. Also, the viability, T/C (compound 0.00316 µM) was 97.8% and 95.2%. The viability, T/C (compound 0.01 µM) was 97.5% and 93.7%. Besides, under “compound 0.0316 µM”, the viability, T/C is 94.1% and 101%. Further, for the setting “compound 0.1 µM”, the viability, T/C was 97.3% and 108%.

Consider `NS(=O)(=O)OCC1CC(n2ccc3c(NC4CCc5ccccc54)ncnc32)CC1O` (configuration not stated), for which the IC50 is 180 nM and 162 nM. For the same molecule, the viability, T/C (compound 0.00949 µM) is 93.9% and 100%. Under “compound 0.03 µM”, the viability, T/C was 94.9% and 85.9%. Further, the viability, T/C (compound 0.0949 µM) was 62.6% and 66.7%. The viability, T/C (compound 0.3 µM) was 37.2% and 33%. In addition, where the note is “compound 0.949 µM”, the viability, T/C is 20.5% and 9.16%. Besides, the viability, T/C (compound 3 µM) was 7.98% and 4.41%.

Take `Nc1ccccc1NC(=O)c1ccc(CNC(=O)OCc2cccnc2)cc1`: the IC50 is 1310 nM and 628 nM. In addition, under “compound 0.00949 µM”, the viability, T/C is 99.8% and 104%. The viability, T/C (compound 0.03 µM) is 99.2% and 98.5%. For the same molecule, under “compound 0.0949 µM”, the viability, T/C was 102% and 106%. The viability, T/C (compound 0.3 µM) was 88.2% and 103%. The viability, T/C (compound 0.949 µM) is 64.4% and 20.6%. Also, the viability, T/C (compound 3 µM) was 14.5% and 1.27%.

Regarding `Nc1ccn(C2OC(CO)C(O)C2(F)F)c(=O)n1` (configuration not stated), the IC50 was < 0.949 nM and 2.23 nM. For the same molecule, the viability, T/C (compound 0.000949 µM) was 17.2% and 101%. In addition, the viability, T/C (compound 0.003 µM) is 16.7% and 32.3%. The viability, T/C (compound 0.00949 µM) was 16.5% and 13%. Also, the viability, T/C (compound 0.03 µM) was 16.5% and 11.9%. Moreover, the viability, T/C (compound 0.0949 µM) is 17.1% and 12.7%. The viability, T/C (compound 0.3 µM) is 14.7% and 14%.

Regarding `Nc1ncn(C2CC(O)C(CO)O2)c(=O)n1` (configuration not stated), the IC50 is more than 1000 nM. Also, the viability, T/C (compound 0.00316 µM) is 93.4% and 108%. Under “compound 0.01 µM”, the viability, T/C was 102% and 99.4%. For the same molecule, under “compound 0.0316 µM”, the viability, T/C was 97.3% and 94.3%. For the same molecule, under “compound 0.1 µM”, the viability, T/C is 113% and 112%. Besides, the viability, T/C (compound 0.316 µM) was 113% and 133%. Where the note is “compound 1 µM”, the viability, T/C was 104% and 141%.

Take `Nc1ncn(C2CC(O)C(CO)S2)c(=O)n1` (configuration not stated): the IC50 is 69.6 nM and 104 nM. Where the note is “compound 0.000949 µM”, the viability, T/C was 109% and 96.1%. In addition, the viability, T/C (compound 0.003 µM) was 118% and 104%. For the setting “compound 0.00949 µM”, the viability, T/C is 99.9% and 109%. Also, the viability, T/C (compound 0.03 µM) was 83.4% and 99.1%. Moreover, where the note is “compound 0.0949 µM”, the viability, T/C is 37.5% and 53.4%. Also, the viability, T/C (compound 0.3 µM) is 11.7% and 12%.

Consider `O=C(C=Cc1cccc(S(=O)(=O)Nc2ccccc2)c1)NO`, for which the IC50 is 223 nM and 234 nM. The viability, T/C (compound 0.00949 µM) is 102% and 94.1%. For the same molecule, the viability, T/C (compound 0.03 µM) is 100% and 96.4%. Also, the viability, T/C (compound 0.0949 µM) was 84.3% and 80.5%. In addition, the viability, T/C (compound 0.3 µM) is 36.6% and 22.1%. In addition, under “compound 0.949 µM”, the viability, T/C was 15.3% and 3.68%.

On to `O=C(C=Cn1cnc(-c2cc(C(F)(F)F)cc(C(F)(F)F)c2)n1)NNc1cnccn1`, for which the IC50 is 19.4 nM and 56.4 nM. In addition, the viability, T/C (compound 0.00316 µM) was 98.1% and 93.5%. Also, the viability, T/C (compound 0.01 µM) was 85.8% and 106%. Further, the viability, T/C (compound 0.0316 µM) is 23.5% and 84.3%. For the same molecule, the viability, T/C (compound 0.1 µM) is 9.4% and 15.8%. Also, the viability, T/C (compound 0.316 µM) is 5.65% and 4.97%. For the same molecule, the viability, T/C (compound 1 µM) is 0.55% and 2.09%.

On to `O=C(c1cc(Cc2n[nH]c(=O)c3ccccc23)ccc1F)N1CCN(C(=O)C2CC2)CC1`, for which the IC50 is more than 10000 nM. In addition, the viability, T/C (compound 0.0316 µM) is 100% and 90.9%. Further, the viability, T/C (compound 0.1 µM) is 102% and 106%. For the same molecule, the viability, T/C (compound 0.316 µM) is 105% and 103%. In addition, the viability, T/C (compound 1 µM) is 93.5% and 95.7%. Moreover, the viability, T/C (compound 3.16 µM) is 69.7% and 113%. In addition, the viability, T/C (compound 10 µM) is 54.8% and 86.6%.

What is called viability, T/C is the result in the treated group divided by that in the control group, in per cent. As a reminder, the IC50 is the concentration needed to halve the response being measured.

Values taken from PubChem BioAssay AID1918933 (Molecular Pharmacology Branch, DTP, NCI, 2023).
